According to patent publication US11384078B2, “5,6-fused-bicyclic compounds and compositions for the treatment of parasitic diseases” (NOVARTIS AG, priority 2017, dated 2022):
Where two headings read alike, the source gives them in different places.

How the values were obtained:
[1] = tested on: Trypanosoma cruzi amastigotes cultured in 3T3 fibroblast cells; test: Assay for growth inhibition of kinetoplastid parasite Trypanosoma cruzi (beta-galactosidase Tulahuen strain, CPRG readout); assay type: cell-based; settings: read-out: Buckner infectious T. cruzi EC50
Text: Assay for Growth Inhibition of Kinetoplastid Parasite Trypanosoma cruzi
Compounds of the invention can be assayed for inhibitor activity against Trypanosoma cruzi amastigotes cultured in 3T3 fibroblast cells. The assay is done using the mammalian stage (amastigotes) of T. cruzi that replicates in the intracellular space of host cells. The host cells are initially infected with the culture-derived trypomastigotes that rapidly invade and then divide as amastigotes. The protocol uses the Tulahuen strain of T. cruzi that has been engineered to express the E. coli beta-galactosidase gene (Lac-Z) (Antimicr. Agents Chemoth. 40:2592, 1996). This allows for a colorimetric readout by using the substrate CPRG and an absorbance plate reader.
3T3 fibroblast cells are re-suspended in RPMI-1640 medium without phenol red medium supplemented with 10% FBS (heat inactivated), 100 μg/ml penicillin, and 100 μg/ml streptomycin. Forty μL of suspension (1,000 cells) is dispensed into 384-well plates and incubated overnight at 37° C. temperature and in atmosphere containing 5% CO2. The following day, 100 nL of compounds of the invention in DMSO are added to plate wells containing 3T3 cells. At the same time control compounds (benznidazole and nifurtimox) and DMSO are added to plates to serve as the positive and negative controls, respectively. After that, 10 μL of media containing 10,000 T. cruzi trypomastigotes are added to each plate well and plates are placed back into incubators. After 6 day incubation, 10 μL of reagent solution (0.6 mM CPRG, 0.6% NP-40 in PBS) is added to plates and incubated at room temperature for 2 hours. Absorbance is then measured on SpectraMax GEMINI fluorimeter to determine relative number of T. cruzi cells present in each plate well.

[2] = tested on: Leishmania donovani axenic amastigote; test: In vitro assay for growth inhibition of Leishmania donovani axenic amastigote (Cell TiterGlo luminescence); assay type: cell-based; settings: read-out: L. donovani amastigotes EC50
Protocol: Abbreviations as used herein below have the corresponding meaning: • CPRG Chlorophenol Red-P-D-galactopyranoside • ATP adenosine triphosphate • BSA bovine serum albumin • DMSO dimethyl sulfoxide • FBS fetal bovine serum • PBS phosphate buffered saline • RPMI 1640 Rosweli Park Memorial Institute (RPMI) 1640 medium In Vitro Assay for Growth Inhibition of Leishmania donovani Axenic Amastiqote
Leishmania donovani axenic amastigote parasites are grown at 37° C., 5% CO2 in media made of RPMI 1640, 4 mM L-glutamine, 20% heat inactivated FBS, 100 units/ml of penicillin and 100 μg/ml of streptomycin, 23 μM folic acid, 100 μM adenosine, 22 mM D-glucose, 25 mM MES. The pH of media is adjusted to 5.5 at 37° C. using HCl. 20 μL of media is first dispensed into 384 well plates and 100 nL of the compounds of invention in DMSO are added to the plate wells. At the same time control compounds and DMSO are added to plates to serve as the positive and negative controls, respectively. 40 μL of parasite culture (9600 parasites) are then added to the plate wells. The plates are then placed into incubators. After two days incubation, 20 μL of Cell TiterGlo® (Promega) is added to the plate wells. The luminescence signal of each well is measured using the Envision reader (Perkin Elmer).

[3] = Trypanosoma cruzi, Fibroblast, T. cruzi amastigotes in 3T3 fibroblast cells
[4] = Leishmania donovani, L. donovani axenic amastigotes in vitro
[5] = Trypanosoma cruzi, Fibroblast, Table 4: compound of Formula (I) compared with compounds having a different core
[6] = Leishmania donovani, Table 4: compound of Formula (I) compared with compounds having a different core

Structure (SMILES) | EC50 [1, 3] | EC50 [2, 4] | also measured
Cc1nc(C)c(C(=O)Nc2ccc(F)c(-n3cc4cc(CC(C)C)cnc4n3)c2)o1 [Compound 16, N-{4-fluoro-3-[5-(2-methylpropyl)-2H-pyrazolo[3,4-b]pyridin-2-yl]phenyl}-2,4-dimethyl-1,3-oxazole-5-carboxamide] | 12 nM | 89 nM | 
Cc1nc(C)c(C(=O)Nc2ccc(F)c(-n3cc4cc(C5CC5)cnc4n3)c2)o1 [Compound 17, N-(3-{5-cyclopropyl-2H-pyrazolo[3,4-b]pyridin-2-yl}-4-fluorophenyl)-2,4-dimethyl-1,3-oxazole-5-carboxamide] | 16 nM | 64 nM | 
O=C(Nc1ccc(F)c(-n2cc3cc(C4CCCC4)cnc3n2)c1)N1CC(F)C1 [Compound 18, N-(3-{5-cyclopentyl-2H-pyrazolo[3,4-b]pyridin-2-yl}-4-fluorophenyl)-3-fluoroazetidine-1-carboxamide] | 160 nM | 290 nM | 
O=C(Nc1ccc(F)c(-n2cc3cc(C4CCCC4)cnc3n2)c1)N1CC(F)(F)C1 [Compound 30, N-(3-{5-cyclopentyl-2H-pyrazolo[3,4-b]pyridin-2-yl}-4-fluorophenyl)-3,3-difluoroazetidine-1-carboxamide] |  | 590 nM | 
CC(C)Cc1cnc2nn(-c3cc(NC(=O)N4CC[C@@H](F)C4)ccc3F)cc2c1 [Compound 41, (3R)-3-fluoro-N-{4-fluoro-3-[5-(2-methylpropyl)-2H-pyrazolo[3,4-b]pyridin-2-yl]phenyl}pyrrolidine-1-carboxamide] |  | 20 nM | 
O=C(Nc1ccc(F)c(-n2cc3cc(C4CCCC4)cnc3n2)c1)N1CC[C@@H](F)C1 [Compound 43, (3R)-N-(3-{5-cyclopentyl-2H-pyrazolo[3,4-b]pyridin-2-yl}-4-fluorophenyl)-3-fluoropyrrolidine-1-carboxamide] | 5.2 nM | 4.7 nM | 
CC(C)Cc1cnc2nn(-c3cc(NC(=O)c4ccco4)ccc3F)cc2c1 [Compound 54, N-{4-fluoro-3-[5-(2-methylpropyl)-2H-pyrazolo[3,4-b]pyridin-2-yl]phenyl}furan-2-carboxamide] | 4.1 nM | 28 nM | 
O=C(Nc1ccc(F)c(-n2cc3cc(C4CCCCC4)cnc3n2)c1)c1ccco1 [Compound 57, N-(3-{5-cyclohexyl-2H-pyrazolo[3,4-b]pyridin-2-yl}-4-fluorophenyl)furan-2-carboxamide] | 360 nM | 710 nM | 
CCC(C)c1cnc2nn(-c3cc(NC(=O)c4ccco4)ccc3F)cc2c1 (stereo not shown) [Compound 61, N-{3-[5-(butan-2-yl)-2H-pyrazolo[3,4-b]pyridin-2-yl]-4-fluorophenyl}furan-2-carboxamide] | 52 nM | 240 nM | 
Cc1nc(C)c(C(=O)Nc2ccc(F)c(-n3cc4cc(CC(C)(C)C)cnc4n3)c2)o1 [Compound 102, N-{3-[5-(2,2-dimethylpropyl)-2H-pyrazolo[3,4-b]pyridin-2-yl]-4-fluorophenyl}-2,4-dimethyl-1,3-oxazole-5-carboxamide] | 46 nM | 110 nM | 
Cc1ccc(C(=O)Nc2ccc(F)c(-n3cc4cc(C(C)C)cnc4n3)c2)o1 [Compound 109, N-{4-fluoro-3-[5-(propan-2-yl)-2H-pyrazolo[3,4-b]pyridin-2-yl]phenyl}-5-methylfuran-2-carboxamide] | 15 nM | 74 nM | 
COc1ccc(C(=O)Nc2ccc(F)c(-n3cc4cc(C(C)C)cnc4n3)c2)o1 [Compound 110, N-{4-fluoro-3-[5-(propan-2-yl)-2H-pyrazolo[3,4-b]pyridin-2-yl]phenyl}-5-methoxyfuran-2-carboxamide] | 150 nM | 640 nM | 
CC(C)c1cnc2nn(-c3cc(NC(=O)c4ccc(F)o4)ccc3F)cc2c1 [Compound 113, 5-fluoro-N-{4-fluoro-3-[5-(propan-2-yl)-2H-pyrazolo[3,4-b]pyridin-2-yl]phenyl}furan-2-carboxamide] | 5.22 nM | 37 nM | 
O=C(Nc1ccc(F)c(-n2cc3cc(N4CCOCC4)cnc3n2)c1)c1ccco1 [Compound 122, N-{4-fluoro-3-[5-(morpholin-4-yl)-2H-pyrazolo[3,4-b]pyridin-2-yl]phenyl}furan-2-carboxamide] | 4.2 nM | 15 nM | 
CC(C)c1cnc2nn(-c3cc(NC(=O)N4CC(F)(F)C4)ccc3F)cc2c1 [Compound 124, 3,3-difluoro-N-{4-fluoro-3-[5-(propan-2-yl)-2H-pyrazolo[3,4-b]pyridin-2-yl]phenyl}azetidine-1-carboxamide] | 16 nM | 18 nM | 
CC(C)c1cnc2nn(-c3cc(NC(=O)C4CCC4)ccc3F)cc2c1 [Compound 210, N-{4-fluoro-3-[5-(propan-2-yl)-2H-pyrazolo[3,4-b]pyridin-2-yl]phenyl}cyclobutanecarboxamide] | 79 nM | 494 nM | 
CC(C)c1cnc2nn(-c3cc(NC(=O)CC(C)C(F)(F)F)ccc3F)cc2c1 (stereo not shown) [Compound 213, 4,4,4-trifluoro-N-{4-fluoro-3-[5-(propan-2-yl)-2H-pyrazolo[3,4-b]pyridin-2-yl]phenyl}-3-methylbutanamide] | 363 nM | 1560 nM | 
CC(C)c1cnc2nn(-c3cc(NC(=O)CC(C)(C)C)ccc3F)cc2c1 [Compound 217, N-{4-fluoro-3-[5-(propan-2-yl)-2H-pyrazolo[3,4-b]pyridin-2-yl]phenyl}-3,3-dimethylbutanamide] | 4350 nM | 14500 nM | 
O=C(Nc1ccc(F)c(-n2cc3cc(N4CC5(C4)CC5(F)F)cnc3n2)c1)N1CC(F)C1 [Compound 261, N-[3-(5-{1,1-difluoro-5-azaspiro[2.3]hexan-5-yl}-2H-pyrazolo[3,4-b]pyridin-2-yl)-4-fluorophenyl}-3-fluoroazetidine-1-carboxamide] | 2 nM | 4 nM | 
O=C(Nc1ccc(F)c(-n2cc3cc(N4CCC(F)(F)C4)cnc3n2)c1)N1CC(F)C1 [Compound 262, N-{3-[5-(3,3-difluoropyrrolidin-1-yl)-2H-pyrazolo[3,4-b]pyridin-2-yl]-4-fluorophenyl}-3-fluoroazetidine-1-carboxamide] | 4 nM | 33 nM | 
Cc1nc(C)c(C(=O)Nc2ccc(F)c(-n3cc4cc(N5CC(C(F)(F)F)C5)cnc4n3)c2)o1 [Compound 279] |  |  | EC50 ([1]; T. cruzi amastigotes in 3T3 fibroblast cells): 3 nM; EC50 ([2]; L. donovani axenic amastigotes in vitro): 10 nM
O=C(Nc1ccc(F)c(-n2cc3cc(-c4ncccc4Cl)cnc3n2)c1)C1CC1 [Compound 333, N-{3-[5-(3-chloropyridin-2-yl)-2H-pyrazolo[3,4-b]pyridin-2-yl]-4-fluorophenyl}cyclopropanecarboxamide] | 16 nM | 43 nM | 
Cc1nc(C)c(C(=O)Nc2ccc(F)c(-n3cc4cc(C(C)C)cnc4n3)c2)o1 [drawing 458] |  |  | EC50 [1, 5]: 15 nM; EC50 [2, 6]: 18 nM
Cc1nc(C)c(C(=O)Nc2ccc(F)c(-c3cn4cc(C(C)C)cnc4n3)c2)o1 [reference compound] |  |  | EC50 [1, 5]: 48 nM; EC50 [2, 6]: 180 nM
Cc1nc(C)c(C(=O)Nc2ccc(F)c(-c3nc4ncc(C(C)C)cn4n3)c2)o1 [reference compound] |  |  | EC50 [1, 5]: 45 nM; EC50 [2, 6]: 210 nM
Cc1nc(C)c(C(=O)Nc2ccc(F)c(-c3nc4ncc(C(C)(C)C)cn4n3)c2)o1 [reference compound] |  |  | EC50 [1, 5]: 22 nM; EC50 [2, 6]: 80 nM
Cc1nc(C)c(C(=O)Nc2ccc(F)c(-c3cn4nc(C(C)(C)C)cnc4n3)c2)o1 [reference compound] |  |  | EC50 [1, 5]: 57 nM; EC50 [2, 6]: 367 nM
